Reference: patent US20060293259A1, “Compositions and methods of use of derivatized flavanols” (Mars, Incorporated, priority 2005, published 2006)

What was measured:
[1] = tested on: human umbilical vein endothelial cell (HUVEC); assay: NO production (NOx in culture medium) by HUVEC; assay type: cell-based; details: for effect on NO production, chronic effect test: 5 subsequent doses, each for 24 hours; for effect on NO production, acute effect test: single dose, 2 and 24 hours, 100 nM, and 10 μM
Protocol: Alkylated compounds, obtained as described in Example 1, were investigated for their effect on nitric oxide (NO) production and vasorelaxation using serum-free human umbilical vein endothelial cell (HUVEC) culture system in vitro. NO production by endothelial cells and relaxation of pre-constricted aortic rings are two main markers for evaluating cardiovascular effects of test compounds.
HUVECs obtained from a single donor were cultured in serum free, low protein (0.5 g/l), antibiotic-free cell culture medium supplemented with essential growth factors, nutrients and minerals. […] The cell culture medium was substituted with apo-transferrin, superoxide dismutase, and catalase to exclude secondary effects of test compounds involving their auto-oxidation mediated hydrogen peroxide formation.
(§1) Test compounds were evaluated with respect to their potential to acutely (2 hours) and chronically (5 doses given in a 24 h period) modulate NO production. Positive controls (acetylcholine and/or histamine) and negative control L-NNMA (NO synthase inhibitor) were included in all experiments. Cell counts and total protein were used to assess intra-assay variation. Potential toxic effects of tested compounds were also monitored (MTT reduction was measured).
NO production was evaluated by measuring the total amount of all major nitric oxide end products (NOx, including nitrate, nitrite, nitrosothiols) present in the cell culture medium. […] The amount of NO released from the culture medium was subsequently evaluated by measuring the chemiluminescence emitted during the stoichiometrical reaction between ozone and NO using NO Analyzer (Sievers Instruments, Inc. Boulder, Colo.).
The data presented herein were obtained from three experiments and were expressed as the concentration of NO present (in μmol/l) (as NOx) in the cell culture medium+/−standard deviation (SD). The data were corrected for the NOx intrinsically present in the fully supplemented cell culture medium and normalized with respect to the volume of media from which the sample was drawn. Data were analyzed using Student's t-test with a 95% level of confidence. P values equal to or less than […] were defined as statistically significant.
(§2) For the acute effect test, HUVECs were incubated with a single dose of 4′-O-ethyl (−) epicatechin, 4′-O-methyl (−) catechin, 3′-O-methyl (−) catechin which may be prepared as described in Ex. 1 using (−) catechin as a starting material, for 2 and 24 hours at concentrations of 100 nM, […], and 10 μM at 37 C and 5% CO2.
For the chronic effect test, HUVECs were incubated with 5 subsequent doses of test compounds, each for 24 hours. After each 24 hour treatment, culture medium was replaced.

[2] = tested on: human umbilical vein endothelial cell (HUVEC); assay: MTT assay for toxic effects in HUVEC; assay type: cell-based; details: acute effect test, 100 nM, and 10 μM
Protocol: as §1, §2

platelets in whole blood = assay: Collagen-induced platelet aggregation in whole blood (platelet counting); assay type: cell-based, human; details: aspirin 100 μM; for inhibition of collagen-induced platelet aggregation: first experiment (FIG. 1), collagen 0.125, 0.25, 0.5 μg/ml, 4 and 10 min, test flavanols 0.3 mM, mean of n=9; for inhibition of collagen induced aggregation: second experiment (FIG. 2), collagen 0.125-0.5 μg/ml, 4 min, flavanols 0.3 mM, n=9
Protocol: (§3) Platelet aggregation was measured using a platelet counting technique, and formation of platelet/monocyte conjugates (P/M) and platelet/neutrophil conjugates (P/N) by flow cytometry. In later experiments the activation state of platelets associated with leukocytes (CD62P) was also measured and also the activation state of the leukocytes themselves (CD11b).
Blood samples were studied using the Multi-Sample Agitator (MSA) produced by the Medical Engineering Unit (University of Nottingham). The MSA is used to maintain blood samples at 37° C. and to agitate small samples of blood at a stir speed of 1,000 rpm as required.
(§4) Blood was obtained from healthy volunteers, who denied taking any aspirin or non-steroidal anti-inflammatory drugs (NSAID) in the previous 10 days. This blood was dispensed into graduated polystyrene tubes that contained hirudin (final concentration 50 μg/ml) and a small volume of the flavanol under investigation or ethanol as control. The final concentration of ethanol in the blood was always 0.3%. In some experiments, aspirin (ASA) or saline as control was also included in the tube. The tubes were then capped and inverted three times to ensure adequate mixing then placed in the MSA at 37° C. for 30 min before the experiments were performed, during which time the blood was left undisturbed. A further sample of blood was taken into a commercially prepared vacutainer tube that contained K2EDTA as anticoagulant.
Following a 30 min pre-incubation period, aliquots of blood (480 μl) were dispensed into small polystyrene tubes each containing a stir bar and stirred for 2 min in the MSA. After 2 min a solution (20 μl) of agonist or vehicle control were added to the tubes. These were then stirred in the MSA for up to 10 min at which time the platelet aggregates were fixed by mixing a small sub sample with fixative solution in a 1:2 ratio (v/v). The platelet count in the fixed samples was determined using the UltraFlo-100 Whole Blood Platelet Counter. Platelet aggregation was calculated as the percentage loss of single platelets with reference to the platelet count of the EDTA sample.
(§5) Blood was obtained from three different volunteers and the platelet aggregation and platelet/leukocyte conjugate formation was measured in response to collagen (0, 0.125, 0.25 and 0.5 μg/ml). In this experiment the highest collagen concentration used previously (1 μg/ml) was replaced with a lower concentration of collagen (0.125 μg/ml) to optimise the inhibition brought about by the different flavanols. In these experiments (+) catechin (Sigma) was used at 1 mM, aspirin (100 μM) and the test flavanols at 0.3 mM with the exception of EP−(0.1 mM) and 4 mCAT (0.05 mM). Aggregation was measured at 4 and 10 min following agonist addition and platelet/leukocyte conjugate formation only at 10 min.
The absolute response of the blood from the different volunteers to collagen varied. This meant that the relative inhibitory effects of a flavanol was dependent on the volunteer's responsiveness to the particular collagen concentration used. For this reason it was decided that an appropriate means of analysing the results, for comparative purposes, would be to calculate the mean values for each flavanol irrespective of the collagen concentration used. (Because, for each of the three blood samples three concentrations of collagen were used, the results are each the means (±sem) of nine individual values).
Blood was obtained from three different volunteers and the platelet aggregation (4 min) and platelet/leukocyte conjugate formation (10 min) was measured in response to collagen (0, 0.125, 0.25 and 0.5 μg/ml). At the same time the activation of platelets and leukocytes in the conjugates were measured by incubation with CD62P and CD11b antibodies. In these experiments aspirin was used at a concentration of 100 μM and derivatized flavanols and procyanidins at 0.3 mM with the exception of EP-(0.1 mM) and 4mCAT (0.05 mM). […]

[3] = tested on: platelet/monocyte conjugates; assay: Platelet/monocyte conjugate (P/M) formation in whole blood by flow cytometry; assay type: cell-based, human; details: collagen 0.125-0.5 μg/ml, 10 min, aspirin 100 μM; for inhibition of platelet/monocyte conjugation (P/M): first experiment (FIG. 1), test flavanols 0.3 mM; for inhibition of P/M: second experiment (FIG. 2), flavanols 0.3 mM
Protocol: as §3
(§6) Flow cytometry was carried out using commercially available fluorescent labelled antibodies on a Facscan (Becton Dickinson, UK) equipped with a 5 W laser operating at 15 mW power and a wavelength of 488 nm or an LSRII flow cytometer (Becton Dickinson, UK) equipped with an additional red Trigon laser operating at a wavelength of 633 nm.
as §4
(§7) Platelet-leukocyte conjugate formation was measured in the same stirred samples used to measure platelet aggregation. Sub samples were taken 4 min or 10 min following the addition of agonist and transferred into the appropriate antibody or antibody mixture. These were then incubated in the dark at room temperature for not less than 20 min. Following red cell lysis and a washing procedure the cell suspensions were applied to either the FACScan or the LSRII flow cytometer. Leukocytes were identified by logical gating from dot plots of forward scatter (cell size) and side scatter (cell granularity) profiles acquired with linear amplification. Monocytes were identified by their forward scatter-side scatter profile and CD14 (PE) positivity, while neutrophils were identified in the same way but were negative for CD14 expression. The “pan” leukocyte marker, CD45 (PerCP) was also used to identify the leukocyte population. Fluorescence parameters were acquired with logarithmic amplification. Platelet monocyte (P/M) and platelet neutrophil (P/N) conjugates were quantified as median CD42a (FITC) fluorescence of the monocyte (P/M mf) or neutrophil population (P/N mf). Leukocyte activation was measured by CD11b (AlexaFluor647) expression (CD11b-M for monocytes and CD11b-N for neutrophils). Platelet activation (P-selectin expression) was measured by CD62P (PE) positivity of the platelets associated with leukocytes as (CD62P-M on P/M and CD62P-N on P/N).
The FACScan was used to measure the fluorescent probes in experiments where three colors were used together, but the LSRII was needed in order to study four colors. The LSRII is a more sensitive machine and produces higher fluorescence values (mf) than the FACScan. […]
Blood was obtained from three different volunteers and the platelet aggregation and platelet/leukocyte conjugate formation was measured in response to collagen (0, 0.125, 0.25 and 0.5 μg/ml). […]

[4] = tested on: platelet/neutrophil conjugates; assay: Platelet/neutrophil conjugate (P/N) formation in whole blood by flow cytometry; assay type: cell-based, human; details: collagen 0.125-0.5 μg/ml, 10 min, aspirin 100 μM; for inhibition of platelet/neutrophil conjugate formation (P/N): first experiment (FIG. 1), test flavanols 0.3 mM; for inhibition of P/N: second experiment (FIG. 2), flavanols 0.3 mM
Protocol: as §3, §6, §4, §7
The FACScan was used to measure the fluorescent probes in experiments where three colors were used together, but the LSRII was needed in order to study four colors. The LSRII is a more sensitive machine and produces higher fluorescence values (mf) than the FACScan. Results obtained on the FACScan cannot be directly compared with the results obtained on the LSRII.
as §5, with “Aggregation was measured at 4 and 10 min following agonist addition and platelet/leukocyte conjugate formation only at 10 min.” left out

[5] = tested on: CD62P on platelets associated with monocytes and neutrophils; assay: Platelet activation (CD62P, P-selectin) on platelets associated with leukocytes; assay type: cell-based, human; details: FIG. 2; collagen 0.125-0.5 μg/ml; 10 min; flavanols 0.3 mM, aspirin 100 μM
Protocol: as §3, §6
Blood was obtained from healthy volunteers, who denied taking any aspirin or non-steroidal anti-inflammatory drugs (NSAID) in the previous 10 days. This blood was dispensed into graduated polystyrene tubes that contained hirudin (final concentration 50 μg/ml) and a small volume of the flavanol under investigation or ethanol as control. […]
(§8) Platelet-leukocyte conjugate formation was measured in the same stirred samples used to measure platelet aggregation. […] Fluorescence parameters were acquired with logarithmic amplification. Platelet monocyte (P/M) and platelet neutrophil (P/N) conjugates were quantified as median CD42a (FITC) fluorescence of the monocyte (P/M mf) or neutrophil population (P/N mf). Leukocyte activation was measured by CD11b (AlexaFluor647) expression (CD11b-M for monocytes and CD11b-N for neutrophils). Platelet activation (P-selectin expression) was measured by CD62P (PE) positivity of the platelets associated with leukocytes as (CD62P-M on P/M and CD62P-N on P/N).
From this point on it was decided to include measures of the extent of the activation of both platelets and leukocytes in the conjugates that formed following addition of collagen to blood. P-selectin (CD62P) was measured on the platelets associated with leukocytes in the conjugates that formed. Leukocyte activation was measured as the amount of CD11b that was expressed. […]

[6] = tested on: CD11b on monocytes and neutrophils; assay: Leukocyte activation (CD11b expression) on monocytes and neutrophils; assay type: cell-based, human; details: FIG. 2; collagen 0.125-0.5 μg/ml; 10 min; flavanols 0.3 mM, aspirin 100 μM
Protocol: as §3
as §6, with “nm. […]” for “nm.”
as §8, with “P/N). […]” for “P/N).”

## 3′-O-methyl (−) catechin
[1]
  effect on NO production, chronic effect test: no statistically significant effect
  effect on NO production, acute effect test: no statistically significant effect
[2]
  toxic effects (MTT assay): did not have toxic effects

## CC(=O)Oc1ccccc1C(=O)O [ASA, acetyl salicylic acid, reference compound]
Platelets in whole blood
  inhibition of collagen-induced platelet aggregation: effectively inhibited
  inhibition of collagen induced aggregation: expected effects
[3]
  inhibition of platelet/monocyte conjugation (P/M): effectively inhibited
[4]
  inhibition of platelet/neutrophil conjugate formation (P/N): effectively inhibited
  inhibition of P/N: expected effects
[5]
  inhibition of platelet activation (CD62P) on monocytes and neutrophils: expected effects
[6]
  inhibition of leukocyte activation (CD11b on monocytes and neutrophils): no effect

## CCOc1ccc([C@H]2Oc3cc(O)cc(O)c3C[C@H]2O)cc1O [4′-O-ethyl (−) epicatechin]
[1]; 10 μM concentration, p=0.004
  effect on NO production, chronic effect test: statistically significant increase
[1]
  effect on NO production, acute effect test: no statistically significant effect
[2]
  toxic effects (MTT assay): did not have toxic effects

## COc1ccc([C@H]2Oc3cc(O)cc(O)c3C[C@@H]2O)cc1O [4′-O-methyl (−) catechin]
[1]
  effect on NO production, chronic effect test: no statistically significant effect
  effect on NO production, acute effect test: no statistically significant effect
[2]
  toxic effects (MTT assay): did not have toxic effects

## COc1ccc(C2Oc3cc(O)cc(O)c3CC2O)cc1O (stereo not shown) [4mEPCAT, 4′OMe epicatechin]
Platelets in whole blood
  inhibition of collagen-induced platelet aggregation: significant effect
  inhibition of collagen induced aggregation: among the most effective
[3]
  inhibition of platelet/monocyte conjugation (P/M): significant effect
  inhibition of P/M: significant effect
[4]
  inhibition of platelet/neutrophil conjugate formation (P/N): among the most effective
  inhibition of P/N: most effective
[5]
  inhibition of platelet activation (CD62P) on monocytes and neutrophils: best inhibited
[6]
  inhibition of leukocyte activation (CD11b on monocytes and neutrophils): among the most effective

## COc1cc(C2Oc3cc(O)cc(O)c3CC2O)ccc1O (stereo not shown) [3mCAT, 3′OMe catechin]
Platelets in whole blood
  inhibition of collagen-induced platelet aggregation: significant effect
  inhibition of collagen induced aggregation: among the most effective
[3]
  inhibition of platelet/monocyte conjugation (P/M): significant effect
  inhibition of P/M: significant effect
[4]
  inhibition of platelet/neutrophil conjugate formation (P/N): among the most effective
  inhibition of P/N: most effective
[5]
  inhibition of platelet activation (CD62P) on monocytes and neutrophils: best inhibited
